Test system: hES cells
Assay: Cell survival assay, 24 hours (Example 2)
Format: cell-based, human
Description: Briefly, 96-well plates were coated by extracellular matrix proteins as described above and blocked by O3 medium containing bovine serum albumin. The ES cells were plated at cell density of 50,000 cells/cm^2 onto extracellular matrix-coated plates and left to adhere for 1 hour in a cell incubator. After that the plates were washed 3 times with the medium to remove the non-adherent cells, and then the adherent cells were fixed for 20 minutes by 5% glutaraldehyde, stained by 0.1% Crystal Violet. (Kebo Lab, Spanga, Sweden, http://www.kebolab.se). After one hour and 3 washes with water, Crystal Violet was extracted with 10% acetic acid and quantified by measuring optical density at 570 nm. All the experiments were performed in quadruplicate.
The survival assay was performed as described for the cell adhesion assay above, except that the cells were left in the cell incubator for 24 hours. For inhibition of survival assay, the cells were kept in a medium with function blocking antibodies at the concentrations recommended by the manufacturer or pathway inhibitors at concentrations indicated in the text for 30 minutes, and then plated on the coated dishes. All the experiments were performed in quadruplicate.
Pluripotent hES cells express α1, α5, β1, β2 and γ1 laminin chains. To compare the adhesion and clonal survival of hES cells plated from single cell suspension to different coating substrata, hES cells growing as monolayers on LN-511 or as clusters on a feeder layer were trypsinized into single cell suspension in O3 medium and plated on cell culture dishes coated with Matrigel, LN-111, LN-511, LN-521 or a mixture of LN-511 and LN-521, in the absence or presence of a ROCK inhibitor (Y-27632) and analyzed after 24 hours.

With “LN-521: protein formed by joining α5, β2 and γ1 laminin chains; human recombinant, produced in HEK293 cells” the “survival of Y-27632 treated human ES cells compared with Matrigel” value (40,000 cells per 1 cm^2, 10 μM Y-27632) was “survived better”, the “survival after 24 hours relative to LN-511” value (O3 medium) was “three times higher” and the “survival after 24 hours relative to Matrigel” value (O3 medium) was “approximately 20 times”. For the same substance, the “survival of hES cells 24 hours after plating from single cell suspension” value (O3 medium, absence of ROCK inhibitor) was “did so as single cells”, the “survival relative to Matrigel without exogenous bFGF” value (exogenous bFGF removed from the O3 medium) was 20 times and the “survival 24 hours after plating in medium lacking all growth factors of the TeSR1 formulation” value (no bFGF, LiCl, GABA, pipecolic acid, TGFβ) was “survived”.
